In article PMC4965013, “Open Source Drug Discovery with the Malaria Box Compound Collection for Neglected Diseases and Beyond” (PLoS Pathogens, 2016):
Like-named read-outs stand apart in the source and are kept apart here.

Columns and labels:
[1] = system: bovine Babesia and equine Babesia and Theileria parasites; assay: Babesia and Theileria fluorescence-based assay, all four species; assay type: cell-based, B. bovis, B. bigemina, T. equi, B. caballi
[2] = system: P. falciparum 3D7 trophozoites; assay: Metabolomic fingerprint profiling LC-MS; assay type: cell-based, Plasmodium falciparum; parameters: UDP-D-glucose / ADP-D-glucose: unit not given here; details: for Acetyllysine / N-acetyl-L-ornithine / N-carbamoyl-L-aspartate / NADPH / dAMP / dCMP / dTDP / dTMP / dTTP / dihydroorotate / orotate / DLH / DLS/SDL/SID / PD / PEE / PVNF / 3-phosphoglycerate / ADP-D-glucose / ATP / CDP / D-sedoheptulose-1/7-phosphate / FAD / GMP / NAD+ / NADP+ / Octoluse Bisphosphate / Pyroglutamic acid / UDP-D-glucose / UDP-D-glucuronate / UDP-N-acetyl-glucosamine / UDP / UMP / UTP / a-ketoglutarate / citrate/isocitrate / cytidine / dATP / dGMP/AMP / fumarate / glucose-1/6-phosphate / glycerate / guanine / guanosine / hypoxanthine / indole / inosine / nicotinate / ornithine / phosphoenolpyruvate / pyruvate / ribose-phosphate / sarcosine/alanine / sn-glycerol-3-phosphate / succinate/methylmalonic acid / uridine / xanthosine: S2 Table Metabolomics; for Acetyllysine: metabolite Acetyllysine; for N-acetyl-L-ornithine: metabolite N-acetyl-L-ornithine; for N-carbamoyl-L-aspartate: metabolite N-carbamoyl-L-aspartate; for NADPH: metabolite NADPH; for dAMP: metabolite dAMP; for dCMP: metabolite dCMP; for dTDP: metabolite dTDP; for dTMP: metabolite dTMP; for dTTP: metabolite dTTP; for dihydroorotate: metabolite dihydroorotate; for orotate: metabolite orotate; for DLH: peptide DLH; for DLS/SDL/SID: peptide DLS/SDL/SID; for PD: peptide PD; for PEE: peptide PEE; for PVNF: peptide PVNF; for 3-phosphoglycerate: metabolite 3-phosphoglycerate; for ADP-D-glucose: metabolite ADP-D-glucose; for ATP: metabolite ATP; for CDP: metabolite CDP; for CDP / D-sedoheptulose-1/7-phosphate / GMP / Octoluse Bisphosphate / UDP / UMP / UTP / citrate/isocitrate / dGMP/AMP / fumarate / glucose-1/6-phosphate / glycerate / guanine / guanosine / inosine / pyruvate / sarcosine/alanine / succinate/methylmalonic acid / uridine / xanthosine: change in metabolite level after compound treatment; for D-sedoheptulose-1/7-phosphate: metabolite D-sedoheptulose-1/7-phosphate; for FAD: metabolite FAD; for GMP: metabolite GMP; for NAD+: metabolite NAD+; for NADP+: metabolite NADP+; for Octoluse Bisphosphate: metabolite Octoluse Bisphosphate; for Pyroglutamic acid: metabolite Pyroglutamic acid; for UDP-D-glucose: metabolite UDP-D-glucose; for UDP-D-glucuronate: metabolite UDP-D-glucuronate; for UDP-N-acetyl-glucosamine: metabolite UDP-N-acetyl-glucosamine; for UDP: metabolite UDP; for UMP: metabolite UMP; for UTP: metabolite UTP; for a-ketoglutarate: metabolite a-ketoglutarate; for citrate/isocitrate: metabolite citrate/isocitrate; for cytidine: metabolite cytidine; for dATP: metabolite dATP; for dGMP/AMP: metabolite dGMP/AMP; for fumarate: metabolite fumarate; for glucose-1/6-phosphate: metabolite glucose-1/6-phosphate; for glycerate: metabolite glycerate; for guanine: metabolite guanine; for guanosine: metabolite guanosine; for hypoxanthine: metabolite hypoxanthine; for indole: metabolite indole; for inosine: metabolite inosine; for 2_3-Diphosphoglyceric acid / 4-phosphopantothenate / 6-phospho-D-gluconate / FMN / IMP / Pyrophosphate / Sedoheptoluse bisphosphate / cyclic-AMP / glutathione disulfide / lactate / myo-inositol: metabolite level change after treatment; for nicotinate: metabolite nicotinate; for ornithine: metabolite ornithine; for phosphoenolpyruvate: metabolite phosphoenolpyruvate; for pyruvate: metabolite pyruvate; for ribose-phosphate: metabolite ribose-phosphate; for sarcosine/alanine: metabolite sarcosine/alanine; for sn-glycerol-3-phosphate: metabolite sn-glycerol-3-phosphate; for succinate/methylmalonic acid: metabolite succinate/methylmalonic acid; for uridine: metabolite uridine; for xanthosine: metabolite xanthosine
[3] = system: P. falciparum; assay: EC50 listed in S2 Table Metabolomics (used to set the concentration tested); assay type: cell-based; details: Plasmodium falciparum, read-out: EC50_nM

SMILES: COc1ccccc1N=C1C(=O)c2ccccc2C(O)=C1N1CCCCC1 [MMV085203]
- anti-Babesia and anti-Theileria hits, IC50 in words [1]: nanomolar IC50s
- Acetyllysine [2]: 0.5338
- N-acetyl-L-ornithine [2]: 0.417
- N-carbamoyl-L-aspartate [2]: -0.03953
- NADPH [2]: 1.905
- dAMP [2]: 0.2134
- dCMP [2]: -0.3018
- dTDP [2]: 0.1555
- dTMP [2]: 0.3091
- dTTP [2]: 0.09879
- dihydroorotate [2]: -0.4435
- orotate [2]: -0.006229
- DLH [2]: 0.05618
- DLS/SDL/SID [2]: 0.215
- PD [2]: -0.1394
- PEE [2]: 0.002208
- PVNF [2]: 0.05104
- 3-phosphoglycerate [2]: 0.03547
- ADP-D-glucose [2]: -0.1308
- ATP [2]: 0.1374
- CDP [2]: 0.2087
- D-sedoheptulose-1/7-phosphate [2]: 0.1847
- FAD [2]: -0.04298
- GMP [2]: 0.06518
- NAD+ [2]: -0.0924
- NADP+ [2]: 0.08883
- Octoluse Bisphosphate [2]: 0.05889
- Pyroglutamic acid [2]: 0.3327
- UDP-D-glucose [2]: 0.02335
- UDP-D-glucuronate [2]: 0.1307
- UDP-N-acetyl-glucosamine [2]: -0.006531
- UDP [2]: 0.1215
- UMP [2]: -0.1092
- UTP [2]: 0.1112
- a-ketoglutarate [2]: 0.6853
- citrate/isocitrate [2]: 0.6482
- cytidine [2]: -0.04401
- dATP [2]: 0.1251
- dGMP/AMP [2]: 0.1681
- fumarate [2]: 0.1969
- glucose-1/6-phosphate [2]: -0.1808
- glycerate [2]: 0.6274
- guanine [2]: 0.2252
- guanosine [2]: 0.5678
- hypoxanthine [2]: 0.8131
- indole [2]: 0.6437
- inosine [2]: 0.2953
- 2_3-Diphosphoglyceric acid [2]: 0.04377
- 4-phosphopantothenate [2]: 0.03169
- 6-phospho-D-gluconate [2]: 0.09424
- FMN [2]: -0.0513
- IMP [2]: 0.06497
- Pyrophosphate [2]: -0.1041
- Sedoheptoluse bisphosphate [2]: 0.1294
- cyclic-AMP [2]: 0.1643
- glutathione disulfide [2]: -0.1576
- lactate [2]: 0.4496
- myo-inositol [2]: 0.5579
- nicotinate [2]: 0.3875
- ornithine [2]: 0.05264
- phosphoenolpyruvate [2]: 0.005153
- pyruvate [2]: 1.4601
- ribose-phosphate [2]: 1.0837
- sarcosine/alanine [2]: 0.0342
- sn-glycerol-3-phosphate [2]: -0.8649
- succinate/methylmalonic acid [2]: 0.5863
- uridine [2]: 0.4561
- xanthosine [2]: 0.5245

SMILES: C[n+]1c2ccccc2nc2ccc(NCCO)cc21 [MMV396693]
- anti-Babesia and anti-Theileria hits, IC50 in words [1]: nanomolar IC50s
- mean selectivity indices (SI) [1]: greater than 230
- IC50 ([1]; Babesia, read-out: IC50s for both bovine Babesia and equine Babesia and Theileria parasites): 0.043 to 0.75 µM
- Acetyllysine [2]: -0.1505
- N-acetyl-L-ornithine [2]: -0.01449
- N-carbamoyl-L-aspartate [2]: 0.2036
- NADPH [2]: 1.101
- dAMP [2]: 0.3768
- dCMP [2]: -0.245
- dTDP [2]: -0.2826
- dTMP [2]: -0.3704
- dTTP [2]: 0.008069
- dihydroorotate [2]: 0.3914
- orotate [2]: -0.3502
- DLH [2]: 0.01259
- DLS/SDL/SID [2]: 0.07661
- PD [2]: 0.009709
- PEE [2]: -0.05476
- PVNF [2]: 0.1478
- 3-phosphoglycerate [2]: 0.5809
- ADP-D-glucose [2]: 0.23
- ATP [2]: 0.04335
- CDP [2]: -0.06362
- D-sedoheptulose-1/7-phosphate [2]: -0.05616
- FAD [2]: 0.2669
- GMP [2]: 0.08605
- NAD+ [2]: 0.2129
- NADP+ [2]: 0.2138
- Octoluse Bisphosphate [2]: 0.3676
- Pyroglutamic acid [2]: 0.1161
- UDP-D-glucose [2]: 0.1757
- UDP-D-glucuronate [2]: 0.2718
- UDP-N-acetyl-glucosamine [2]: 0.1832
- UDP [2]: -0.3369
- UMP [2]: -0.448
- UTP [2]: 0.03764
- a-ketoglutarate [2]: -0.1814
- citrate/isocitrate [2]: 1.401
- cytidine [2]: 0.9119
- dATP [2]: 0.0739
- dGMP/AMP [2]: 0.007618
- fumarate [2]: 0.1883
- glucose-1/6-phosphate [2]: -0.01569
- glycerate [2]: 0.2787
- guanine [2]: 0.244
- guanosine [2]: 0.1378
- hypoxanthine [2]: 0.1496
- indole [2]: 0.3367
- inosine [2]: 0.5603
- 2_3-Diphosphoglyceric acid [2]: 0.305
- 4-phosphopantothenate [2]: 0.02035
- 6-phospho-D-gluconate [2]: 0.201
- FMN [2]: 0.1776
- IMP [2]: 0.1162
- Pyrophosphate [2]: 0.4038
- Sedoheptoluse bisphosphate [2]: 0.06738
- cyclic-AMP [2]: 0.09405
- glutathione disulfide [2]: 0.1827
- lactate [2]: 0.3349
- myo-inositol [2]: -0.009161
- nicotinate [2]: 0.1527
- ornithine [2]: 0.2843
- phosphoenolpyruvate [2]: 0.01034
- pyruvate [2]: -0.1004
- ribose-phosphate [2]: 0.7027
- sarcosine/alanine [2]: 0.6024
- sn-glycerol-3-phosphate [2]: 0.3061
- succinate/methylmalonic acid [2]: 0.6812
- uridine [2]: 0.1028
- xanthosine [2]: 0.2966
- EC50 [3]: 0.296 µM

SMILES: CN(C)c1ccc(C(O)(c2ccc(N(C)C)cc2)c2ccc(N(C)C)cc2)cc1 [MMV665941]
- anti-Babesia and anti-Theileria hits, IC50 in words [1]: nanomolar IC50s
- Acetyllysine [2]: -1.017
- N-acetyl-L-ornithine [2]: -0.7597
- N-carbamoyl-L-aspartate [2]: -0.9197
- NADPH [2]: 0.7329
- dAMP [2]: -0.1528
- dCMP [2]: -0.8045
- dTDP [2]: -0.3693
- dTMP [2]: -0.3724
- dTTP [2]: 0.2892
- dihydroorotate [2]: -0.7761
- orotate [2]: -0.6971
- DLH [2]: -0.3436
- DLS/SDL/SID [2]: -0.7858
- PD [2]: -0.9616
- PEE [2]: -0.896
- PVNF [2]: -0.9967
- 3-phosphoglycerate [2]: -0.2513
- ADP-D-glucose [2]: -0.2022
- ATP [2]: -0.1582
- CDP [2]: -0.3781
- D-sedoheptulose-1/7-phosphate [2]: -0.2425
- FAD [2]: -0.1824
- GMP [2]: -1.314
- NAD+ [2]: -0.1192
- NADP+ [2]: 0.08054
- Octoluse Bisphosphate [2]: -0.4622
- Pyroglutamic acid [2]: -0.1275
- UDP-D-glucose [2]: -0.08523
- UDP-D-glucuronate [2]: -0.09688
- UDP-N-acetyl-glucosamine [2]: -0.3177
- UDP [2]: -0.7488
- UMP [2]: -1.259
- UTP [2]: -0.2947
- a-ketoglutarate [2]: -0.5688
- citrate/isocitrate [2]: -0.2269
- cytidine [2]: 0.5361
- dATP [2]: 0.2904
- dGMP/AMP [2]: -0.7364
- fumarate [2]: -0.9732
- glucose-1/6-phosphate [2]: -0.5386
- glycerate [2]: -0.5934
- guanine [2]: -0.3347
- guanosine [2]: -0.8332
- hypoxanthine [2]: -0.2046
- indole [2]: -0.2792
- inosine [2]: -0.51
- 2_3-Diphosphoglyceric acid [2]: -0.09061
- 4-phosphopantothenate [2]: -0.6586
- 6-phospho-D-gluconate [2]: -0.08067
- FMN [2]: 0.05461
- IMP [2]: -0.2283
- Pyrophosphate [2]: -0.1004
- Sedoheptoluse bisphosphate [2]: -0.2916
- cyclic-AMP [2]: 0.03248
- glutathione disulfide [2]: -0.3448
- lactate [2]: -0.6265
- myo-inositol [2]: -1.035
- nicotinate [2]: 0.06813
- ornithine [2]: -0.116
- phosphoenolpyruvate [2]: -0.1381
- pyruvate [2]: -0.3661
- ribose-phosphate [2]: -0.3246
- sarcosine/alanine [2]: -0.4581
- sn-glycerol-3-phosphate [2]: -0.06155
- succinate/methylmalonic acid [2]: -1.567
- uridine [2]: -0.4322
- xanthosine [2]: -0.131
- EC50 ([3]; EC50 used for Factor_XEC50 in metabolomics): 0.255 µM
